# Experimental data: article PMC4947679, “Quantitative In Vitro and In Vivo Evaluation of Intestinal and Blood-Brain Barrier Transport Kinetics of the Plant N-Alkylamide Pellitorine” (BioMed Research International, 2016)
# What was measured:
# [1] = Caco-2 cell permeability assay; type: in vitro ADME, human; settings: human, Caco-2
# Description: (§1) The Caco-2 cell line originated from a human colorectal carcinoma and was maintained in Dulbecco's modified Eagle's medium (DMEM) (95% humidity, 37°C, 5% CO2), supplemented with 10% (V/V) fetal bovine serum, 100 U/mL penicillin and 100 μg/mL streptomycin, 2 mM L-glutamine, and 1% nonessential amino acids (all from Invitrogen/GIBCO, Ghent, Belgium).
# (§2) The Caco-2 cell intestinal model was used to investigate the gut mucosa permeation of pellitorine. On each Transwell (Corning Costar, New York, USA) membrane insert filter (0.4 μm pore size, 12 mm filter diameter), the cells were seeded at a density of 2.6 · 10^5 cells/cm^2 cells and cultivated in the described supplemented DMEM. Every second day, the medium was changed. During a period of 21–29 days, the cells were grown and differentiated until monolayers were formed. The integrity of the monolayers was checked via the measurement of transepithelial electrical resistance (TEER) of the monolayers with a Millicell-ERS system (Millipore Corp., Bedford, MA, USA) before and after the transport experiments. The experiments were performed in duplicate for each dose solution. Transport experiments were carried out according to Hubatsch et al. in two directions: from the apical-to-basolateral (ab) direction and from the basolateral-to-apical (ba) direction in Hanks' Balanced Salt solution. Two dose solutions of pellitorine (in Anacyclus pyrethrum extract) of 1 μg/mL in 0.5% EtOH (further indicated as DS1) and of 56 μg/mL in 0.5% of a mixture of vitamin E-TPGS (33.3%), EtOH (11.1%), PEG 400 (33.3%), and PG (22.2%) (further indicated as DS2) dissolved in HBSS were tested.
# (§3) Final apical volumes of 0.4 mL and basolateral volumes of 1.2 mL were used for 12 mm filter supports during the transport experiment. After 15, 30, 60, 90, and 120 min, samples were taken from the receiver compartment (basolateral to apical transport: 100 μL, apical-to-basolateral transport: 300 μL) and immediately replaced by fresh HBSS. […] Pellitorine was quantified using a ultraperformance liquid chromatography-tandem mass spectrometry (UPLC-MS^2) method as described below.
# (§4) The apparent permeability coefficient (P app in cm/s) of pellitorine in DS2 was calculated using a sink condition equation, while P app of pellitorine in DS1 was calculated using a nonsink equation. From Fick's first law, J = −D × [dC(x)]/dx (J is the flux or transfer rate along the donor-to-receptor side, D is the diffusion coefficient, x is the distance from the donor compartment, and C(x) is the concentration in the barrier at the coordinate x in the barrier), the following differential equation is derived: dM r(t)/dt = P app × A × [C d(t) − C r(t)], in which P app is the apparent permeability coefficient (a product of distribution coefficient with diffusion coefficient divided by the barrier thickness), M r is the amount of substance in the receiver chamber, A is the cross-sectional area of the barrier, C d is the donor concentration, and C r is the receiver concentration. This differential equation can be solved to calculate P app using different initial conditions depending on sink or nonsink conditions. In case of sink conditions, the following equation was obtained from the amount of compound transported per time dM r(t)/dt with the receiver concentration set to zero [18, 20]:(1) Mrt/Cd,0=Papp×A×t+c, where P app is the apparent permeability coefficient (cm/s), A is the surface area of the filter (1.12 cm^2), C d,0 is the initial concentration in the donor chamber (μg/mL), t is the time (s), and c is a constant term which vanishes, since M r is initially zero at t = 0.
# (§5) The donor concentration at each time point was calculated by taking into account the amount of compound which already permeated through the cell monolayer during that time interval. In this way, the reduction in donor concentration after every sampling was also taken into account.
# Caco-2 cell monolayer = assay: Caco-2 cell permeability assay; type: in vitro ADME, human
# Description: as §1, §2, §3, §4, §5
# [2] = Oral gavage pharmacokinetic experiment with rats; type: in vivo, Wistar rats; settings: rat
# Description: Male and female Wistar rats weighing approximately 220 g were obtained from Bharat Serum and Vaccines Pvt. Ltd., Thane, India (registration number 103/99/CPCSEA) and were housed at CU Shah College of Pharmacy, SNDT Women's University, Santacruz, Mumbai, India (registration number 39/99/CPCSEA) where the experiments were carried out. Rats of 7-8 weeks of age were fasted overnight and used for the experiments.
# A pellitorine dose solution was prepared using the Anacyclus pyrethrum extract. To the rats, 1.5 mL of a 0.73 mg pellitorine/g dose solution in 10 : 20 : 30 : 40 (w/w/w/w) EtOH : PG : Vit E-TPGS : PEG 400 was administered using a gavage needle (stainless steel, length of 3 inches, and 2.5 mm internal diameter). As blank, a solution containing EtOH, PG, Vit E-TPGS, and PEG without pellitorine was used. Each dose solution was orally administered to three female and three male rats. 1.5 mL blood was collected from the retro orbital vein at 1, 2, 3, 4, 6, and 8 h after administration of the dose solution and was centrifuged for 20 min at room temperature. Thereafter, the serum samples were immediately frozen at −80°C until bioanalysis. The animals were sacrificed at the end of the experiment by CO2 inhalation. Using GraphPad software (La Jolla, USA), the elimination rate constant k e (h^−1) is calculated using the following equation of a one-compartment model: C(t) = C 0 × e ^−ke×t, in which C(t) (ng/mL) is the concentration of pellitorine at time t (h) and C 0 the concentration of pellitorine at time t = 0 (ng/mL). The elimination half-life t 1/2,e (h) is calculated as ln(2)/k e.
# fatty acid uptake = test system: fatty acid uptake; parameters: method as in PMID 25422952; settings: in vitro; cited from earlier work
# [3] = apical-to-basolateral, DS1, after 120 min
# [4] = apical-to-basolateral, DS2, after 120 min
# [5] = basolateral-to-apical, DS1, after 120 min
# [6] = basolateral-to-apical, DS2, after 120 min
structure (smiles),measurement,setting,value
"CCCCC/C=C/C=C/C(=O)NCC(C)C [pellitorine, deca-2E,4E-dienoic acid isobutylamide]","Papp A→B at 120 min, 1 μg/mL","[1]; DS1: 1 μg/mL pellitorine (in Anacyclus pyrethrum extract) in 0.5% EtOH in HBSS, nonsink equation, mean ± SD, n = 2, read-out: apparent permeability coefficient (P app), apical-to-basolateral transport",48.08 ± 0.08 ×10⁻⁶ cm/s
same,"Papp B→A at 120 min, 1 μg/mL","[1]; DS1, mean ± SD, n = 2, read-out: apparent permeability coefficient (P app), basolateral-to-apical transport",57.5 ± 6.2 ×10⁻⁶ cm/s
same,"Papp A→B at 120 min, 56 μg/mL","[1]; DS2: 56 μg/mL pellitorine (in Anacyclus pyrethrum extract) in 0.5% vitamin E-TPGS/EtOH/PEG 400/PG mixture in HBSS, sink equation, mean ± SD, n = 2, read-out: apparent permeability coefficient (P app), apical-to-basolateral transport",5.5 ± 0.06 ×10⁻⁶ cm/s
same,"Papp B→A at 120 min, 56 μg/mL","[1]; DS2, mean ± SD, n = 2, read-out: apparent permeability coefficient (P app), basolateral-to-apical transport",2.8 ± 0.09 ×10⁻⁶ cm/s
same,recovery at 120 min,"[1]; after 120 min, read-out: mass balance, total recovery",104 to 132%
same,"uptake ratio (P app,ab/P app,ba)",Caco-2 cell monolayer; DS1,0.84
same,"uptake ratio (P app,ab/P app,ba)",Caco-2 cell monolayer; DS2,1.96
same,amount of pellitorine permeated,Caco-2 cell monolayer; [3],0.31 µg
same,percentage of applied pellitorine permeated,Caco-2 cell monolayer; [3],56.7%
same,amount of pellitorine permeated,Caco-2 cell monolayer; [4],2.24 µg
same,percentage of applied pellitorine permeated,Caco-2 cell monolayer; [4],9.98%
same,amount of pellitorine permeated,Caco-2 cell monolayer; [5],0.39 µg
same,percentage of applied pellitorine permeated,Caco-2 cell monolayer; [5],23.7%
same,amount of pellitorine permeated,Caco-2 cell monolayer; [6],1.24 µg
same,percentage of applied pellitorine permeated,Caco-2 cell monolayer; [6],1.84%
same,ratio of P app values between the apical-to-basolateral and the basolateral-to-apical direction or vice versa,Caco-2 cell monolayer; both dose solutions,≤ 2
same,k el,"[2]; both sexes, Wistar, serum, po, 5 mg pellitorine/kg, oral gavage, 5 mg pellitorine/kg (Anacyclus pyrethrum extract dose solution), one-compartment model, read-out: serum elimination rate constant k e (converted)",8.33e-05 s⁻¹
same,half-life,"[2]; both sexes, Wistar, serum, oral gavage, 5 mg pellitorine/kg, one-compartment model, read-out: elimination half-life t 1/2,e (converted)",2.46 h
same,maximum serum concentration,[2]; oral administration of 5 mg pellitorine/kg,26 ng/mL
same,serum elimination rate constant k e,"[2]; oral gavage, 5 mg pellitorine/kg (Anacyclus pyrethrum extract dose solution), one-compartment model",0.28 h⁻¹
same,fatty acid uptake,fatty acid uptake,reduces fatty acid uptake
